Experimental data taken from US20050064384A1, “Recruitment of mst1 or mst2 protein kinase to induce apoptosis in eukaryotic cells” (priority 2001, published 2005).
“Also recorded” adds a separate entry of the source. Peptide text beside a SMILES is read from it. * marks the point of attachment. Cbz = O=C(OCc1ccccc1)*; CH2F = FC*

Legend:
Assay type in all cases: cell-based
Jurkat cells = assay: Jurkat cell survival by flow cytometry (GFP positive live cells); settings: incubation with zVAD-FMK, data not shown
Method: The Jurkat/T antigen cell line was cultured in complete IMDM medium supplemented with 10% FCS, 2 mM glutamine and gentamycin (50 μg/ml) in a humidified incubator with 5% CO2 in air at 37° C. The cells were kept at a density of 0.5-1×10^6/ml. Aliquots containing 3×10^6 Jurkat cells were electorporated at 250 volts and 960 μF with mixtures of plasmids as indicated in the Figures together with 1 μg of cDNA encoding GFP. Twenty-four hours post transfection, cell survival was analyzed by flow cytometry using a previously optimized program to measure percentage of live cells that are GFP positive present in forward scatter/side scatter gate in each experimental condition (Vermes et al., J. Immunol. Meth., 243: 167-190 (2000)). The vital GFP positive cells were selected on the basis of unchanged scatter signals when compared to untransfected cells and the apoptotic cell population with decreased FS and increased SS was excluded from the analysis. The data was expressed as “percent cells surviving” with vector controls set to 100%.

HEK293 cells = assay: Apoptosis assay in HEK293 cells (trypan blue exclusion); settings: incubation with zVAD-FMK, data not shown
Method: Transient transfections were performed using LIPOFECTAMINE™ transfection reagent (Gibco BRL, Gaithersburg, Md.) according to the manufacturer's instructions. […] Each well was transfected with a total of 0.5 μg DNA and 3.5 μl LIPOFECTAMINE™ transfection reagent.

NIH3T3 cells = assay: Annexin V labeling in NIH 3T3 cells (FACS); settings: zVAD-FMK 42 μM added at the time of transfection; cells harvested 24 hours later; NORECAAX + wild type MST1, or myrMST1
Method: Annexin V labeling in NIH 3T3 cells. The assay was as described in (van Engeland et al., Cytometry, 24: 131-139 (1996)) with some modifications. NIH 3T3 cells were plated at 3-4×10^5 per well in a 6-well plate the day before transfection. Cells were transfected in duplicate with 6 μg of DNA and 10 μl of LIPOFECTAMINE™ 2000 transfection reagent (GIBCO BRL, Gaithersburg, Md.) in the presence of 10% serum, as recommended by manufacturer, and left for 19-23 hours. In some experiments, Z-Vad-FMK (Calbiochem) was added to 42 μM (final concentration) at the time of transfection. Rat annexinV, purified from liver or recombinant, labeled with Alexa 488 dye was added to the culture media to 1 mg/ml and cells were incubated 5 minutes at 37° C., followed by 25 minutes at room temperature in the dark. Media with floating cells was transferred to 5 ml centrifuge tubes on ice; the plates were washed twice with 1 ml of HBS (20 mM HEPES, pH 7.4, 150 mM NaCl, 2.5 mM CaCl2) and the washes were added to the tubes with media. Floating cells were pelleted, resuspended in 3 ml of HBS and pelleted again. Adherent cells were scraped into 1 ml HBS, pooled with floating cells from the same dish and resuspended by vortexing. […] Cells were analyzed by Coulter EPICS V XL flow cytometer; the percent of annexinV-positive cells was calculated by the cytometer software. […]

`COC(=O)C[C@H](NC(=O)[C@H](C)NC(=O)[C@@H](NC(=O)OCc1ccccc1)C(C)C)C(=O)CF` [zVAD-FMK] (Cbz-Val-Ala-Asp(OMe)-CH2F) was tested, and the “suppression of killing caused by low doses of NORECAAX with MST1” value (Jurkat cells) was “suppressed”, the “suppression of killing caused by low doses of NORECAAX with MST1” value (HEK293 cells) was “suppressed” and the “suppression of NORECAAX and MST1-induced annexin V binding (staining)” value (NIH3T3 cells) was “suppresses; also recorded: fully suppressed”.
